26 compounds from US9512107B2, “Therapeutically active compositions and their methods of use” (Agios Pharmaceuticals, Inc., priority 2012, dated 2016) can be followed below.

Experiment [1] deals with U87MG pLVX-IDH2 R140Q-neo cells. The experiment is described as follows: U87MG pLVX-IDH2 R140Q-neo cell based assay, 2-HG in media by LC-MS at 48 hours. The settings on record: for IC50: Homo sapiens, U-87 MG. Here is the method:
U87MG pLVX-IDH2 R140Q-neo cells are grown in T125 flasks in DMEM containing 10% FBS, 1× penicillin/streptomycin and 500 μg/mL G418. They are harvested by trypsin and seeded into 96 well white bottom plates at a density of 5000 cell/well in 100 μl/well in DMEM with 10% FBS. No cells are plated in columns 1 and 12. Cells are incubated overnight at 37° C. in 5% CO2. The next day compounds are made up at 2× concentration and 100 ul are added to each cell well. The final concentration of DMSO is 0.2% and the DMSO control wells are plated in row G. The plates are then placed in the incubator for 48 hours. At 48 hours, 100 ul of media is removed from each well and analyzed by LC-MS for 2-HG concentrations. The cell plate is placed back in the incubator for another 24 hours. At 72 hours post compound addition, 10 mL/plate of Promega Cell Titer Glo reagent is thawed and mixed. The cell plate is removed from the incubator and allowed to equilibrate to room temperature. Then 100 ul of reagent is added to each well of media. The cell plate is then placed on an orbital shaker for 10 minutes and then allowed to sit at room temperature for 20 minutes. The plate is then read for luminescence with an integration time of 500 ms to determine compound effects on growth inhibition.

The target of another experiment is T1, IDH2 R140Q (Homo sapiens, UniProt P48735, R140Q).
T1 sequence (P48735 40-452 R140Q): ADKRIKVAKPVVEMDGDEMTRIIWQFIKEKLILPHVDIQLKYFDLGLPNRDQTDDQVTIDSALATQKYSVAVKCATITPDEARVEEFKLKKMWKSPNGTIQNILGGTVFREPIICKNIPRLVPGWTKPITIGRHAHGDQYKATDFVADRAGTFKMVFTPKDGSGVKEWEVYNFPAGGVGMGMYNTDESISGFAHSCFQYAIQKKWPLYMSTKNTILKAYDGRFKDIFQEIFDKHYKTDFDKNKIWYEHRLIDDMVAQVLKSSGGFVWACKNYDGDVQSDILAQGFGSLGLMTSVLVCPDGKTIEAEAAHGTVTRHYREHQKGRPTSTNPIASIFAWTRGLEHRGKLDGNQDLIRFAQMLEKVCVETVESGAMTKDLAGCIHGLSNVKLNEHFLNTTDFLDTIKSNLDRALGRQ
The experiment is described as follows: IDH2 R140Q enzymatic assay (cofactor depletion, similar format). The settings on record: for IC50: read-out: Enz R140Q. The class given is biochemical. Here is the method: [The source words this procedure for another variant and says it was used here with some conditions changed.] Compounds are assayed for IDH2 R172K inhibitory activity through a cofactor depletion assay. […] The reaction is terminated by the addition of a second enzyme, diaphorase, and a corresponding substrate, resazurin. Diaphorase reduces resazurin to the highly fluorescent resorufin with the concomitant oxidation of NADPH to NADP, both halting the IDH2 reaction by depleting the available cofactor pool and facilitating quantitation of the amount of cofactor remaining after a specific time period through quantitative production of an easily detected fluorophore.
The test compound is then incubated for one hour at room temperature with the enzyme; before starting the IDH2 reaction with the addition of 10 μl of substrate mix containing 50 μM NADPH and 6.3 mM α-KG in the buffer described above. After a further one hour of incubation at room temperature, the reaction is halted and the remaining NADPH measured through conversion of resazurin to resorufin by the addition of 25 μl Stop Mix (36 μg/ml diaphorase enzyme and 60 μM resazurin; in buffer).

Some results are limits rather than exact numbers.

On to `Fc1cncc(Nc2nc(NC3CCC3)nc(-c3ccccc3F)n2)c1` [Compound 318, N-Cyclobutyl-6-(2-fluoro-phenyl)-N′-(5-fluoro-pyridin-3-yl)-[1,3,5]triazine-2,4-diamine], for which the IC50 (in experiment [1]; on IDH2 R140Q) was less than 100 nM each time.
Take `CC(C)Nc1nc(Nc2ccnc(Cl)c2)nc(-c2cccc(Cl)n2)n1` [Compound 354, 6-(6-chloropyridin-2-yl)-N^2-(2-chloropyridin-4-yl)-N^4-isopropyl-1,3,5-triazine-2,4-diamine]: the results for the IC50 (in experiment [1]; at IDH2 R140Q) were less than 100 nM and 100 to 1000 nM, respectively.
The corresponding values for `Fc1ccc(Nc2nc(NC3CCC3)nc(-c3cccc(Cl)n3)n2)cn1` [Compound 325, 6-(6-chloropyridin-2-yl)-N^2-cyclobutyl-N^4-(6-fluoropyridin-3-yl)-1,3,5-triazine-2,4-diamine] are less than 100 nM and less than 100 nM.
As for `c1ccc(-c2nc(NCC3COC3)nc(Nc3ccncc3)n2)cc1` [Compound 300, N^2-(oxetan-3-ylmethyl)-6-phenyl-N^4-(pyridin-4-yl)-1,3,5-triazine-2,4-diamine], the IC50 (in experiment [1]; on IDH2 R140Q) was 100 to 1000 nM each time.
For `CC(C)Nc1nc(Nc2ccc(OC(C)C)nc2)nc(-c2ccccc2)n1` [Compound 312, N^2-(6-isopropoxypyridin-3-yl)-N^4-isopropyl-6-phenyl-1,3,5-triazine-2,4-diamine], the IC50 is 1000 to 10000 nM in experiment [1] and 100 to 1000 nM at IDH2 R140Q.
As for `CC(C)Nc1nc(Nc2ccncc2F)nc(-c2ccccc2)n1` [Compound 292, N^2-(3-fluoropyridin-4-yl)-N^4-isopropyl-6-phenyl-1,3,5-triazine-2,4-diamine], the “Cell R140Q” value in experiment [1] is recorded as “No Fit”. Also, the “Enz R140Q” value on IDH2 R140Q is recorded as “No Fit”.
As to `CC(C)(O)CNc1nc(Nc2ccnc(C(F)(F)F)c2)nc(-c2ccccc2F)n1` [Compound 319, 1-(4-(2-fluorophenyl)-6-(2-(trifluoromethyl)pyridin-4-ylamino)-1,3,5-triazin-2-ylamino)-2-methylpropan-2-ol], the IC50 is less than 100 nM in experiment [1] and 100 to 1000 nM at IDH2 R140Q.
Regarding `CC(C)(O)CNc1nc(Nc2cncc(F)c2)nc(-c2cccc(C(F)(F)F)n2)n1` [Compound 407, 1-(4-(5-fluoropyridin-3-ylamino)-6-(6-(trifluoromethyl)pyridin-2-yl)-1,3,5-triazin-2-ylamino)-2-methylpropan-2-ol], the IC50 (in experiment [1]; on IDH2 R140Q) was 100 to 1000 nM each time.
In the case of `COc1cccc(-c2nc(Nc3cccc(S(C)(=O)=O)c3)nc(NC(C)C)n2)n1` [Compound 361, N^2-isopropyl-6-(6-methoxypyridin-2-yl)-N^4-(3-(methylsulfonyl)phenyl)-1,3,5-triazine-2,4-diamine], the IC50 (in experiment [1]; at IDH2 R140Q) was 100 to 1000 nM each time.
`CC(C)CNc1nc(Nc2cncc(F)c2)nc(-c2cccc(Cl)n2)n1` [Compound 399, 6-(6-chloropyridin-2-yl)-N^2-(5-fluoropyridin-3-yl)-N^4-isobutyl-1,3,5-triazine-2,4-diamine]: the IC50 is less than 100 nM in experiment [1] and 100 to 1000 nM at IDH2 R140Q.
The corresponding values for `CS(=O)(=O)c1cccc(Nc2nc(NC3CCOCC3)nc(-c3ccccc3)n2)c1` [Compound 306] are less than 100 nM and 100 to 1000 nM.
For `C#Cc1cccc(-c2nc(Nc3cccc(S(C)(=O)=O)c3)nc(NC(C)C)n2)n1` [Compound 360, 6-(6-ethynylpyridine-2-yl)-N^2-isopropyl-N^4-(3-(methylsulfonyl)phenyl)-1,3,5-triazine-2,4-diamine] the same measures were 100 to 1000 nM and 100 to 1000 nM.
`Cc1cc(Nc2nc(NC(C)C)nc(-c3ccccc3)n2)ccn1` [Compound 288, N^2-isopropyl-N^4-(2-methylpyridin-4-yl)-6-phenyl-1,3,5-triazine-2,4-diamine]: the IC50 (in experiment [1]; on IDH2 R140Q) was less than 100 nM throughout.
Regarding `CC(C)Nc1nc(Nc2ccc(F)nc2)nc(-c2ccccc2F)n1` [Compound 387, 6-(2-fluorophenyl)-N^2-(6-fluoropyridin-3-yl)-N^4-isopropyl-1,3,5-triazine-2,4-diamine], the IC50 (in experiment [1]; on IDH2 R140Q) was less than 100 nM in each case.
In the case of `CC(C)Nc1nc(Nc2ccc(OCC3CC3)nc2)nc(-c2ccccc2)n1` [Compound 311, N^2-(6-(cyclopropylmethoxy)pyridin-3-yl)-N^4-isopropyl-6-phenyl-1,3,5-triazine-2,4-diamine], the IC50 (in experiment [1]; at IDH2 R140Q) was 100 to 1000 nM in each case.
Take `CC(C)Nc1nc(Nc2cccc(S(=O)(=O)N3CCC3)c2)nc(-c2cccc(Cl)n2)n1` [Compound 400, N^2-(3-(azetidin-1-ylsulfonyl)phenyl)-6-(6-chloropyridin-2-yl)-N^4-isopropyl-1,3,5-triazine-2,4-diamine]: the IC50 is less than 100 nM in experiment [1] and 100 to 1000 nM at IDH2 R140Q.
On to `CNc1cc(Nc2nc(NC(C)C)nc(-c3ccccc3)n2)ccn1` [Compound 302, N^2-isopropyl-N^4-(2-(methylamino)pyridin-4-yl)-6-phenyl-1,3,5-triazine-2,4-diamine], for which the values for the IC50 (in experiment [1]; on IDH2 R140Q) were 100 to 1000 nM and less than 100 nM, respectively.
For `c1ccc(-c2nc(Nc3ccncc3)nc(NC3C4COCC43)n2)cc1` (stereo not shown) [Compound 297, N^2-(3-oxabicyclo[3.1.0]hexan-6-yl)-6-phenyl-N^4-(pyridin-4-yl)-1,3,5-triazine-2,4-diamine], the IC50 (in experiment [1]; at IDH2 R140Q) was less than 100 nM in each case.
Consider `N#CC1(Nc2nc(Nc3ccncc3)nc(-c3ccccc3)n2)CCC1` [Compound 284, 1-(4-phenyl-6-(pyridin-4-ylamino)-1,3,5-triazin-2-ylamino)cyclobutanecarbonitrile], for which the IC50 (in experiment [1]; on IDH2 R140Q) was 100 to 1000 nM each time.
Turning to `CCC(CO)Nc1nc(Nc2ccncc2)nc(-c2ccccc2)n1` (stereo not shown) [Compound 291, 2-(4-phenyl-6-(pyridin-4-ylamino)-1,3,5-triazin-2-ylamino)butan-1-ol], the “Cell R140Q” value in experiment [1] is listed as “No Fit”. The “Enz R140Q” value at IDH2 R140Q was “No Fit”.
`CC(C)Nc1nc(Nc2ccnc(C(F)(F)F)c2)nc(-c2ccccc2F)n1` [Compound 370, 6-(2-fluorophenyl)-N^2-isopropyl-N^4-(2-(trifluoromethyl)pyridin-4-yl)-1,3,5-triazine-2,4-diamine]: the IC50 (in experiment [1]; on IDH2 R140Q) was less than 100 nM in each case.
For `CC(C)CNc1nc(Nc2cncc(F)c2)nc(-c2ccccc2F)n1` [Compound 320, 6-(2-fluorophenyl)-N^2-(5-fluoropyridin-3-yl)-N^4-isobutyl-1,3,5-triazine-2,4-diamine], the IC50 (in experiment [1]; on IDH2 R140Q) was less than 100 nM each time.
`Fc1ccc(Nc2nc(NC3COC3)nc(-c3cccc(C(F)(F)F)n3)n2)cn1` [Compound 380, N^2-(6-fluoropyridin-3-yl)-N^4-(oxetan-3-yl)-6-(6-(trifluoromethyl)pyridin-2-yl)-1,3,5-triazine-2,4-diamine]: the IC50 (in experiment [1]; at IDH2 R140Q) was 100 to 1000 nM in each case.
Consider `CC(C)Nc1nc(Nc2cn(C)cn2)nc(-c2ccccc2)n1` [Compound 332, N^2-isopropyl-N^4-(1-methyl-1H-imidazol-4-yl)-6-phenyl-1,3,5-triazine-2,4-diamine], for which the “Cell R140Q” value in experiment [1] was “No Fit”. Also, the IC50 on IDH2 R140Q was greater than 10000 nM.
For `CC(C)Nc1nc(Nc2ccnc(N(C)C)c2)nc(-c2ccccc2)n1` [Compound 293, N^2-(2-(dimethylamino)pyridin-4-yl)-N^4-isopropyl-6-phenyl-1,3,5-triazine-2,4-diamine], the IC50 (in experiment [1]; at IDH2 R140Q) was less than 100 nM each time.
Take `CNc1cccc(-c2nc(Nc3ccccc3)nc(NC(C)C)n2)n1` [Compound 331, N^2-isopropyl-6-(6-(methylamino)pyridin-2-yl)-N^4-phenyl-1,3,5-triazine-2,4-diamine]: the IC50 in experiment [1] was less than 100 nM; on IDH2 R140Q, 100 to 1000 nM.
